# Tests used:
# Assay in all cases: KINOMEscan binding assay
# [1] = target: T1, ABL1(M351T)-phosphorylated (Homo sapiens, UniProt P00519, M351T); conditions: 1 µM i-CDK9; read-out: % Retention on Solid Support
# T1 construct: purchased DiscoveRx KINOMEscan
# Procedure, shortened: (§1)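 Active site-directed competition binding measured kinase engagement within a panel of over 400 kinases. i-CDK9 was tested at two concentrations, 1 and 10 µM.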
# [2] = target: T2, ACVR2A (Homo sapiens, UniProt P27037); conditions: read-out: % Retention on Solid Support
# T2 construct: purchased DiscoveRx KINOMEscan
# Procedure, shortened: as §1
# [3] = target: T3, ANKK1 (Homo sapiens, UniProt Q8NFD2); conditions: read-out: % Retention on Solid Support
# T3 construct: purchased DiscoveRx KINOMEscan
# Procedure, shortened: as §1
# [4] = target: T4, AURKC (Homo sapiens, UniProt Q9UQB9); conditions: read-out: % Retention on Solid Support
# T4 construct: purchased DiscoveRx KINOMEscan
# Procedure, shortened: as §1
# [5] = target: T5, CAMK1D (Homo sapiens, UniProt Q8IU85); conditions: read-out: % Retention on Solid Support
# T5 construct: purchased DiscoveRx KINOMEscan
# Procedure, shortened: as §1
# [6] = target: T6, CAMK1G (Homo sapiens, UniProt Q96NX5); conditions: read-out: % Retention on Solid Support
# T6 construct: purchased DiscoveRx KINOMEscan
# Procedure, shortened: as §1
# [7] = target: T7, CAMK2D (Homo sapiens, UniProt Q13557); conditions: read-out: % Retention on Solid Support
# T7 construct: purchased DiscoveRx KINOMEscan
# Procedure, shortened: as §1
# [8] = target: T8, CDK7 (Homo sapiens, UniProt P50613); conditions: read-out: % Retention on Solid Support
# T8 construct: purchased DiscoveRx KINOMEscan
# Procedure, shortened: as §1
# [9] = target: T9, DAPK1 (Homo sapiens, UniProt P53355); conditions: read-out: % Retention on Solid Support
# T9 construct: purchased DiscoveRx KINOMEscan
# Procedure, shortened: as §1
# [10] = target: T10, DAPK3 (Homo sapiens, UniProt O43293); conditions: read-out: % Retention on Solid Support
# T10 construct: purchased DiscoveRx KINOMEscan
# Procedure, shortened: as §1
# [11] = target: T11, EGFR(L747-E749del, A750P) (Homo sapiens, UniProt P00533, A750P/DEL747-749)
# T11 construct: purchased DiscoveRx KINOMEscan
# Procedure, shortened: as §1
# [12] = target: T12, EPHA1 (Homo sapiens, UniProt P21709); conditions: read-out: % Retention on Solid Support
# T12 construct: purchased DiscoveRx KINOMEscan
# Procedure, shortened: as §1
# [13] = target: T13, EPHA5 (Homo sapiens, UniProt P54756)
# T13 construct: purchased DiscoveRx KINOMEscan
# Procedure, shortened: as §1
# [14] = target: T14, IKK-alpha (Homo sapiens, UniProt O15111); conditions: read-out: % Retention on Solid Support
# T14 construct: purchased DiscoveRx KINOMEscan
# Procedure, shortened: as §1
# [15] = target: T15, MET(Y1235D) (Homo sapiens, UniProt P08581, Y1235D)
# T15 construct: purchased DiscoveRx KINOMEscan
# Procedure, shortened: as §1
# [16] = target: T16, OSR1 (Homo sapiens, UniProt O95747); conditions: read-out: % Retention on Solid Support
# T16 construct: purchased DiscoveRx KINOMEscan
# Procedure, shortened: as §1
# [17] = target: T17, PHKG1 (Homo sapiens, UniProt Q16816); conditions: read-out: % Retention on Solid Support
# T17 construct: purchased DiscoveRx KINOMEscan
# Procedure, shortened: as §1
# [18] = target: T18, PIK3CA(I800L) (Homo sapiens, UniProt P42336, I800L); conditions: 1 µM i-CDK9; read-out: % Retention on Solid Support
# T18 construct: purchased DiscoveRx KINOMEscan
# Procedure, shortened: as §1
# [19] = target: T19, PIK4CB (Homo sapiens, UniProt Q9UBF8); conditions: read-out: % Retention on Solid Support
# T19 construct: purchased DiscoveRx KINOMEscan
# Procedure, shortened: as §1
# [20] = target: T20, PIP5K1A (Homo sapiens, UniProt Q99755); conditions: read-out: % Retention on Solid Support
# T20 construct: purchased DiscoveRx KINOMEscan
# Procedure, shortened: as §1
# [21] = target: T21, PIP5K1C (Homo sapiens, UniProt O60331); conditions: 1 µM i-CDK9
# T21 construct: purchased DiscoveRx KINOMEscan
# Procedure, shortened: as §1
# [22] = target: T22, PRKX (Homo sapiens, UniProt P51817); conditions: read-out: % Retention on Solid Support
# T22 construct: purchased DiscoveRx KINOMEscan
# Procedure, shortened: as §1
# [23] = target: T23, RSK4(Kin.Dom.1-N-terminal) (Homo sapiens, UniProt Q9UK32)
# T23 construct: RSK4(Kin.Dom.1-N-terminal); purchased DiscoveRx KINOMEscan
# Procedure, shortened: as §1
# [24] = target: T24, STK33 (Homo sapiens, UniProt Q9BYT3); conditions: read-out: % Retention on Solid Support
# T24 construct: purchased DiscoveRx KINOMEscan
# Procedure, shortened: as §1
# [25] = target: T25, STK36 (Homo sapiens, UniProt Q9NRP7); conditions: read-out: % Retention on Solid Support
# T25 construct: purchased DiscoveRx KINOMEscan
# Procedure, shortened: as §1
# [26] = target: T26, TRKA (Homo sapiens, UniProt P04629); conditions: read-out: % Retention on Solid Support
# T26 construct: purchased DiscoveRx KINOMEscan
# Procedure, shortened: as §1
# [27] = target: T27, WEE2 (Homo sapiens, UniProt P0C1S8); conditions: read-out: % Retention on Solid Support
# T27 construct: purchased DiscoveRx KINOMEscan
# Procedure, shortened: as §1
# [28] = target: T28, p38-delta (Homo sapiens, UniProt O15264); conditions: read-out: % Retention on Solid Support
# T28 construct: purchased DiscoveRx KINOMEscan
# Procedure, shortened: as §1
# [29] = target: T29, p38-gamma (Homo sapiens, UniProt P53778); conditions: read-out: % Retention on Solid Support
# T29 construct: purchased DiscoveRx KINOMEscan
# Procedure, shortened: as §1
# T5 sequence (Q8IU85 whole entry): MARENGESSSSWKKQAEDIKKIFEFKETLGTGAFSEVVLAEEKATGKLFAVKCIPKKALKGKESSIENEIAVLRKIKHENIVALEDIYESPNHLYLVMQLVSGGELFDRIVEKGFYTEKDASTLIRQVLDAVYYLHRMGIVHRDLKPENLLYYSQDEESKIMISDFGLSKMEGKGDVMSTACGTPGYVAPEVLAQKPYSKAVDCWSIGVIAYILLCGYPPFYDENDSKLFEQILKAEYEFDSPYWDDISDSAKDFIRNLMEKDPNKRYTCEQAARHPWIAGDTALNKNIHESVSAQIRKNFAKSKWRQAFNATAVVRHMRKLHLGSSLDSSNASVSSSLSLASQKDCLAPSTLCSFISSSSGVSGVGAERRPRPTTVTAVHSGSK
# T4 sequence (Q9UQB9 whole entry): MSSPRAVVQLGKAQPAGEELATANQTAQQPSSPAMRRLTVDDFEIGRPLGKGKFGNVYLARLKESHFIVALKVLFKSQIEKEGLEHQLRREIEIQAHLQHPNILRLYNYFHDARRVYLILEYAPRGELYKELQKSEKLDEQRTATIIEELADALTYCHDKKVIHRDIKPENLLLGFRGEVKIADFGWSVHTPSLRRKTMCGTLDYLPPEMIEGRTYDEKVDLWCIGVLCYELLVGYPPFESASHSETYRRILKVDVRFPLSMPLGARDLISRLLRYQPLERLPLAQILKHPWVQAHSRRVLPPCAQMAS
# T16 sequence (O95747 whole entry): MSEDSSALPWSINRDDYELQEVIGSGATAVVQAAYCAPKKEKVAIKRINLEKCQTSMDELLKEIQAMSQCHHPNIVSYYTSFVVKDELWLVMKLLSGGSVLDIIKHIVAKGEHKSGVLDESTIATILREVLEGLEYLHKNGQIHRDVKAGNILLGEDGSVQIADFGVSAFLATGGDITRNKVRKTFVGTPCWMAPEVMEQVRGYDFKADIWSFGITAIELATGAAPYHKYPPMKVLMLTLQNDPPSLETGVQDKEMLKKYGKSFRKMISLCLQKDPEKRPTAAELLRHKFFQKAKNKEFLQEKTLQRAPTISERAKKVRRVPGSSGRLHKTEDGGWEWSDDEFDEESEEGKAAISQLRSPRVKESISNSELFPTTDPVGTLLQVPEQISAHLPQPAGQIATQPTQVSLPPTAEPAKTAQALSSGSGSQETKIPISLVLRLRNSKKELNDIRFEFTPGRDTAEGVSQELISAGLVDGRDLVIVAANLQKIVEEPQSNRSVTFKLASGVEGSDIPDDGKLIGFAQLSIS
# T8 sequence (P50613 whole entry): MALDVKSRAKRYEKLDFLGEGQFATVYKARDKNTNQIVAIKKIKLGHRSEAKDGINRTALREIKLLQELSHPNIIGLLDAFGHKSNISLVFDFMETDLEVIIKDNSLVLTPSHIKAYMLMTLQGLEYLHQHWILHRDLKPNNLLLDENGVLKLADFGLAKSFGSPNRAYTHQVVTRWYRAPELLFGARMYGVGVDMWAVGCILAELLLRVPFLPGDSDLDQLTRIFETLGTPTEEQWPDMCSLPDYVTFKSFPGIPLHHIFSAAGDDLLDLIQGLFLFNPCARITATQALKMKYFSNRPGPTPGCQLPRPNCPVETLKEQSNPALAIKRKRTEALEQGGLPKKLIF
# T29 sequence (P53778 whole entry): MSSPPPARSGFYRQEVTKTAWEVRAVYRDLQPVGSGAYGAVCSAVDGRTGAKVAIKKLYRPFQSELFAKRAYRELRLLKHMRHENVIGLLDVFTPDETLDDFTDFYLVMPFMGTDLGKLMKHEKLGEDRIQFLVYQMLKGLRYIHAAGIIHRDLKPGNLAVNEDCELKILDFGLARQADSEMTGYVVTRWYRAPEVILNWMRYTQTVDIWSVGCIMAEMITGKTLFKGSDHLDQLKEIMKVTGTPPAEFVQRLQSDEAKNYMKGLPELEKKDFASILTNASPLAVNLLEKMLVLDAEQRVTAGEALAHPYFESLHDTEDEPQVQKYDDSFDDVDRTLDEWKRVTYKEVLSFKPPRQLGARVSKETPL
# T19 sequence (Q9UBF8 whole entry): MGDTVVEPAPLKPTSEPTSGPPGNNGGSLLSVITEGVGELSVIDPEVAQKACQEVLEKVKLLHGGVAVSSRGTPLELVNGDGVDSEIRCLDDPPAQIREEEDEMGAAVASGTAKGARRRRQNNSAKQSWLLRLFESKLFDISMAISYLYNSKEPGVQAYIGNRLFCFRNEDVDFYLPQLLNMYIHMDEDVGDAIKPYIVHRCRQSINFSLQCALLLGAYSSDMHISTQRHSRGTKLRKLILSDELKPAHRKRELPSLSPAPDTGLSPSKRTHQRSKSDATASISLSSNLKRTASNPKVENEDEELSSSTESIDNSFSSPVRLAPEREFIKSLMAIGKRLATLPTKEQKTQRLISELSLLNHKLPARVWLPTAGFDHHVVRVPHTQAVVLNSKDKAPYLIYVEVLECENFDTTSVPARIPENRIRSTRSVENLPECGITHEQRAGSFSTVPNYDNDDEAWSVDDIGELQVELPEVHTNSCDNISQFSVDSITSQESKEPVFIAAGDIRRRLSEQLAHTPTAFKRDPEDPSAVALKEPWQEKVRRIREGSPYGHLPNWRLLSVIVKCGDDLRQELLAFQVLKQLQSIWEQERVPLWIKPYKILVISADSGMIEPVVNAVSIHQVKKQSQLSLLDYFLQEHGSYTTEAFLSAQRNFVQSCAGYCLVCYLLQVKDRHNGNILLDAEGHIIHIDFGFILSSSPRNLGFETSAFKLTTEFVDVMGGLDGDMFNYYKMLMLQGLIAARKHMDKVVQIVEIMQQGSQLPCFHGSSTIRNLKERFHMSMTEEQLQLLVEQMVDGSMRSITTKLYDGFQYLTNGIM
# T28 sequence (O15264 whole entry): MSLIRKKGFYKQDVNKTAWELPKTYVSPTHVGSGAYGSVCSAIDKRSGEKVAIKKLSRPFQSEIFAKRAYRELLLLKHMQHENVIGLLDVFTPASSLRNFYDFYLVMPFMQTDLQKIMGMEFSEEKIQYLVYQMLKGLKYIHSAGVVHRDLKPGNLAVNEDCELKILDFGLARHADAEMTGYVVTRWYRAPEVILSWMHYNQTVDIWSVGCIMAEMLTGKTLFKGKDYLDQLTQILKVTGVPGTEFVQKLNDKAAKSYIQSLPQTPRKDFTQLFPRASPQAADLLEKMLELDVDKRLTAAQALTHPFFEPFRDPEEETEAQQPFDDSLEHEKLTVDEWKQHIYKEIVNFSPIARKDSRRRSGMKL
# T23 sequence (Q9UK32 1-400 limits assumed): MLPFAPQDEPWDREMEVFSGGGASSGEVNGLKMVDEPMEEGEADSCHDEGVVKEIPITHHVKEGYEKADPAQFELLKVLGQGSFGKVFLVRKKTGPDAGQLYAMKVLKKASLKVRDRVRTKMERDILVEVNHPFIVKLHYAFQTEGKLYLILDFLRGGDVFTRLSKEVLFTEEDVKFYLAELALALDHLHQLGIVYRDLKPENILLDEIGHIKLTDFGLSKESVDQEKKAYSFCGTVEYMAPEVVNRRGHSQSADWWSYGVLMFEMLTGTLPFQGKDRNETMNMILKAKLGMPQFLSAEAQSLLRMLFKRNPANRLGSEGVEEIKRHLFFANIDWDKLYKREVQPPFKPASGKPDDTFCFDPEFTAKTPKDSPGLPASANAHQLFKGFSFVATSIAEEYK
# T22 sequence (P51817 whole entry): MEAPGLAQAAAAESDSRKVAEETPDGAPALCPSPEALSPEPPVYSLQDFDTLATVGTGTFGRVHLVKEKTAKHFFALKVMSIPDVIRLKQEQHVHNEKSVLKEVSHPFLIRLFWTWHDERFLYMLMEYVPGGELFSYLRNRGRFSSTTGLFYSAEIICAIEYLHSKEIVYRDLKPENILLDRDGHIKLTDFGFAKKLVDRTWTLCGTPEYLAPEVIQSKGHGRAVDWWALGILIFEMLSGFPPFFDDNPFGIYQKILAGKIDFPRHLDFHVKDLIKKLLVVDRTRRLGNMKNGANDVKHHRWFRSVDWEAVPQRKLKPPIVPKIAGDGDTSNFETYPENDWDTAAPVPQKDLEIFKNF
# T10 sequence (O43293 whole entry): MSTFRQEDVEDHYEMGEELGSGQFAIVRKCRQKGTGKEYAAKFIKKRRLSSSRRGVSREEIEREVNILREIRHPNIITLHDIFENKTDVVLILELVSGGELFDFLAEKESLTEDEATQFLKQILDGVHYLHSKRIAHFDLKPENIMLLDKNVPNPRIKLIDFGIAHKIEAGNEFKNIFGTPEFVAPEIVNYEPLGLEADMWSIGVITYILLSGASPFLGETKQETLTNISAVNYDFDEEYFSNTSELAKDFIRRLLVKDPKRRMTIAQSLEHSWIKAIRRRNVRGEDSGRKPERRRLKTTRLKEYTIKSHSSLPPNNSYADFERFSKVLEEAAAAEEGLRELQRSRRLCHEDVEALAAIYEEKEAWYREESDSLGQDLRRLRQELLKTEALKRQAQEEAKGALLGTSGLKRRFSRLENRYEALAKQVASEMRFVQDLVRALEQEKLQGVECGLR
# T2 sequence (P27037 20-513): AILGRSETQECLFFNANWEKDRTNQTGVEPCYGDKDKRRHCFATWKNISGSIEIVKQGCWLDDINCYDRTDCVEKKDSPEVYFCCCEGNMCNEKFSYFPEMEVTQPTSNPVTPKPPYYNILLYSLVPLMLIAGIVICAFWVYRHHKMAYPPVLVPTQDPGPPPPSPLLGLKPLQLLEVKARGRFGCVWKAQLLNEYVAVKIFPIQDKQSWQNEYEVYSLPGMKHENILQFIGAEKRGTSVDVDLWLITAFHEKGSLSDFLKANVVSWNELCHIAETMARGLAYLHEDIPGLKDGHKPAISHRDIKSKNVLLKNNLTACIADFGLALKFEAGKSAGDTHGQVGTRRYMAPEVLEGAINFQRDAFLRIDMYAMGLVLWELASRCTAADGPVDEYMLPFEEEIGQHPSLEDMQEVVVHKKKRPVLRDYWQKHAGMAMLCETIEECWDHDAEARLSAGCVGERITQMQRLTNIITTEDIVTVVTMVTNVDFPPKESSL
smiles,measurement,setting,value
"N[C@H]1CC[C@H](Nc2cc(-c3cccc(NCc4cccc(F)c4)n3)c(Cl)cn2)CC1 [i-CDK9, N2′-(trans-4-aminocyclohexyl)-5′-chloro-N6-(3-fluorobenzyl)-2,4′-bipyridine-2′,6-diamine]",remaining binding at 1 µM,[1],96%
same,remaining binding at 1 µM,[2]; 1 µM i-CDK9,98%
same,remaining binding at 10 µM,[2]; 10 µM i-CDK9,91%
same,remaining binding at 1 µM,[3]; 1 µM i-CDK9,100%
same,remaining binding at 10 µM,[3]; 10 µM i-CDK9,100%
same,remaining binding at 1 µM,[4]; 1 µM i-CDK9,100%
same,remaining binding at 10 µM,[4]; 10 µM i-CDK9,71%
same,remaining binding at 1 µM,[5]; 1 µM i-CDK9,100%
same,remaining binding at 10 µM,[5]; 10 µM i-CDK9,100%
same,remaining binding at 1 µM,[6]; 1 µM i-CDK9,92%
same,remaining binding at 10 µM,[6]; 10 µM i-CDK9,100%
same,remaining binding at 1 µM,[7]; 1 µM i-CDK9,100%
same,remaining binding at 10 µM,[7]; 10 µM i-CDK9,100%
same,remaining binding at 1 µM,[8]; 1 µM i-CDK9,14%
same,remaining binding at 10 µM,[8]; 10 µM i-CDK9,11%
same,remaining binding at 1 µM,[9]; 1 µM i-CDK9,64%
same,remaining binding at 10 µM,[9]; 10 µM i-CDK9,100%
same,remaining binding at 1 µM,[10]; 1 µM i-CDK9,90%
same,remaining binding at 10 µM,[10]; 10 µM i-CDK9,70%
same,% Retention on Solid Support,[11]; 1 µM i-CDK9,46%
same,% Retention on Solid Support,[11]; 10 µM i-CDK9,85%
same,remaining binding at 1 µM,[12]; 1 µM i-CDK9,99%
same,remaining binding at 10 µM,[12]; 10 µM i-CDK9,100%
same,% Retention on Solid Support,[13]; 1 µM i-CDK9,96%
same,% Retention on Solid Support,[13]; 10 µM i-CDK9,100%
same,remaining binding at 1 µM,[14]; 1 µM i-CDK9,85%
same,remaining binding at 10 µM,[14]; 10 µM i-CDK9,71%
same,% Retention on Solid Support,[15]; 1 µM i-CDK9,100%
same,% Retention on Solid Support,[15]; 10 µM i-CDK9,11%
same,remaining binding at 1 µM,[16]; 1 µM i-CDK9,97%
same,remaining binding at 10 µM,[16]; 10 µM i-CDK9,85%
same,remaining binding at 1 µM,[17]; 1 µM i-CDK9,100%
same,remaining binding at 10 µM,[17]; 10 µM i-CDK9,100%
same,remaining binding at 1 µM,[18],100%
same,remaining binding at 1 µM,[19]; 1 µM i-CDK9,29%
same,remaining binding at 10 µM,[19]; 10 µM i-CDK9,84%
same,remaining binding at 1 µM,[20]; 1 µM i-CDK9,83%
same,remaining binding at 10 µM,[20]; 10 µM i-CDK9,99%
same,% Retention on Solid Support,[21],85%
same,remaining binding at 1 µM,[22]; 1 µM i-CDK9,100%
same,remaining binding at 10 µM,[22]; 10 µM i-CDK9,90%
same,% Retention on Solid Support,[23]; 1 µM i-CDK9,70%
same,% Retention on Solid Support,[23]; 10 µM i-CDK9,100%
same,remaining binding at 1 µM,[24]; 1 µM i-CDK9,88%
same,remaining binding at 10 µM,[24]; 10 µM i-CDK9,100%
same,remaining binding at 1 µM,[25]; 1 µM i-CDK9,92%
same,remaining binding at 10 µM,[25]; 10 µM i-CDK9,68%
same,remaining binding at 1 µM,[26]; 1 µM i-CDK9,100%
same,remaining binding at 10 µM,[26]; 10 µM i-CDK9,89%
same,remaining binding at 1 µM,[27]; 1 µM i-CDK9,100%
same,remaining binding at 10 µM,[27]; 10 µM i-CDK9,100%
same,remaining binding at 1 µM,[28]; 1 µM i-CDK9,100%
same,remaining binding at 10 µM,[28]; 10 µM i-CDK9,98%
same,remaining binding at 1 µM,[29]; 1 µM i-CDK9,100%
same,remaining binding at 10 µM,[29]; 10 µM i-CDK9,100%

# Reference: publication PMC4490784, “Compensatory induction of MYC expression by sustained CDK9 inhibition via a BRD4-dependent mechanism” (eLife, 2015)
